Results: article PMC10688023 (Journal of chemical information and modeling, 2023)
Counter-ions that a name gives are not always drawn. Like-named read-outs stand apart in the source and are kept apart here.

What was measured:
recombinant human BChE [1] = molecular target: T1, recombinant human BChE (Homo sapiens, UniProt P06276)
recombinant human BChE [2] = molecular target: T1, recombinant human BChE; type: biochemical; conditions: for BChE inhibitory effect (activity call): active in colorimetric assay and in fluorescence assay
recombinant human AChE [3] = molecular target: T2, recombinant human AChE (Homo sapiens, UniProt P22303)
T2 sequence (P22303 32-614): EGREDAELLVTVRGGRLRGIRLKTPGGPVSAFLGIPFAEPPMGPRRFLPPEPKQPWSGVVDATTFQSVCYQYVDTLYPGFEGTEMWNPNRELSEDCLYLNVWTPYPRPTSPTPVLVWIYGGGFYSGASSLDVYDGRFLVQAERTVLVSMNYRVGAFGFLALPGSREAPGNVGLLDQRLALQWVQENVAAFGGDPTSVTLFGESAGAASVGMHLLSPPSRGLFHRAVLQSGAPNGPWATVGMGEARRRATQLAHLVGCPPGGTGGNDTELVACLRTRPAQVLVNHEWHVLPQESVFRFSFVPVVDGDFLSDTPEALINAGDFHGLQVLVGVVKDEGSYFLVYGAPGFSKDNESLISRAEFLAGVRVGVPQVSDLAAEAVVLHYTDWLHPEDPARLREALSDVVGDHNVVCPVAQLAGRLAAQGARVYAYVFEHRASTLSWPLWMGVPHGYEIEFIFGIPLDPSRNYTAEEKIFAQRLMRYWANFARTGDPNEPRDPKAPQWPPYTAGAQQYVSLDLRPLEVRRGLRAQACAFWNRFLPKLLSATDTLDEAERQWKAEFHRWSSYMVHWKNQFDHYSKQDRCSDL

recombinant human AChE [4] = molecular target: T2, recombinant human AChE; conditions: fluorescence-based assay
BChE = conditions: cited from earlier work
AChE = conditions: ref [8], cited from earlier work

T1 sequence (P06276 29-602): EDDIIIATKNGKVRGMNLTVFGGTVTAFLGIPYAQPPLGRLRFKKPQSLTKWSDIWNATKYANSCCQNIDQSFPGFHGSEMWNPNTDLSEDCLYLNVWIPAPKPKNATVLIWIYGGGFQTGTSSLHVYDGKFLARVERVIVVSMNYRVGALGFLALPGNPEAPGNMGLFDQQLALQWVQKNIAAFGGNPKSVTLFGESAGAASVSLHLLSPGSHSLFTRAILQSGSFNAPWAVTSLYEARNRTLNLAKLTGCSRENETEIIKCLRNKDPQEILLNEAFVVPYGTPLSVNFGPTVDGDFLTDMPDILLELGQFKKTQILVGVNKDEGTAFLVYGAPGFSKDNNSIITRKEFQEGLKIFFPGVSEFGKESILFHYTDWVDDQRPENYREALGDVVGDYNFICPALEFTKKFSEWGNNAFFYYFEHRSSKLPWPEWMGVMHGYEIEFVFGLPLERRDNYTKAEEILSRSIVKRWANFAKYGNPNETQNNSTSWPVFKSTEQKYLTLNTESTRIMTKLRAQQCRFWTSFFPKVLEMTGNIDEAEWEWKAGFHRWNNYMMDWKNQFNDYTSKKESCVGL

## Cc1ccc(C)c(-n2cc(CN(C)CCO)c(-c3ccccc3)n2)c1 [NCGC00425816]
Recombinant human BChE [1]; BChE over AChE
  selectivity index (SI): 1250-2351
Recombinant human BChE [1]; colorimetric assay
  efficacy, BChE inhibition: 98.9%±3.21
Recombinant human BChE [1]; read-out: IC50, BChE inhibition, colorimetric assay
  IC50: 40 ± 10 nM
Recombinant human BChE [2]; fluorescence-based assay
  efficacy, BChE inhibition: 109%±6.76
Recombinant human BChE [2]; read-out: IC50, BChE inhibition, fluorescence-based assay
  IC50: 80 ± 10 nM

## CCN(CCCc1ccccc1)CCCc1ccccc1 [alverine citrate]
Recombinant human BChE [2]
  BChE inhibitory effect (activity call): confirmed by both assays

## CCN(CC)CCOC(=O)C(Cc1cccc2ccccc12)CC1CCCO1 (stereo not drawn) [nafronyl oxalate]
Recombinant human BChE [2]
  BChE inhibitory effect (activity call): confirmed by both assays

## O=C(NCc1ccnc(N2CCCC2)c1)C1CCCN(c2cc(-n3cncn3)ncn2)C1 (stereo not drawn) [NCGC00526830]
Recombinant human AChE [3]; AChE over BChE
  selectivity index (SI): 79-164
Recombinant human AChE [3]; colorimetric assay
  efficacy, AChE inhibition: 78%±4.18
Recombinant human AChE [3]; read-out: IC50, AChE inhibition, colorimetric assay
  IC50: 270 nM
Recombinant human AChE [4]
  efficacy, AChE inhibition: 116%±3.24
Recombinant human AChE [4]; read-out: IC50, AChE inhibition
  IC50: 130 ± 20 nM

## CN(C)[C@@H](CCOc1cccc2ccccc12)c1ccccc1 [dapoxetine HCl]
Recombinant human BChE [2]
  BChE inhibitory effect (activity call): confirmed by both assays

## CCN(CC)C(C)CN1c2ccccc2Sc2ccccc21 (stereo not drawn) [ethopropazine]
BChE; read-out: IC50, BChE inhibition, ref [41], [42]
  IC50: 210 to 300 nM
BChE; ref [39]
  selectivity for BChE over AChE: ~ 1000 fold

## CC(CCc1ccccc1)NC(C)C(O)c1ccc(O)cc1 (stereo not drawn) [nylidrin hydrochloride]
Recombinant human BChE [2]
  BChE inhibitory effect (activity call): confirmed by both assays

## COc1ccc2c3c1O[C@H]1C[C@@H](O)C=C[C@@]31CCN(C)C2 [galantamine]
AChE; read-out: IC50, AChE inhibition, [40]
  IC50: 790 nM
AChE
  selective inhibition of AChE activity versus BChE: 50 fold
